Drawing on ChEMBL document CHEMBL1157907, “Synthesis and anti-tumor activities of methyl 2-O-aryl-6-O-aryl'-D-glucopyranosides” (Bioorg Med Chem Lett, 2010), this text covers inhibition and EC50 for 18 compounds.

What is called inhibition is the change of the read-out against control, counted positive when it falls. By EC50 is commonly meant the concentration giving half of the maximal effect. Low readings indicate an effect from little substance, high ones a need for much substance.

Molecules are shown by their SMILES.

The subject of the first test is MDA-MB-231. The test can be described thus: Cytotoxicity against human MDA-MB-231 cells at 20 uM after 48 hrs by MTT assay. The class given is functional. The conditions noted are these: MDA-MB-231, 48 h. (In general: Formazan colour is commonly taken as a measure of viable cells.)
`CO[C@H]1O[C@H](COc2cccc3c2CCCC3)[C@@H](O)[C@H](O)[C@H]1Oc1ccc2c(c1)-c1ccccc1S2(=O)=O`: the inhibition at 20 µM is -8%.
The same measure, in the same setting: under `CO[C@@H]1O[C@H](COc2ccc3c(c2)CCCC3)[C@@H](O)[C@H](O)[C@H]1Oc1ccc2c(c1)-c1ccccc1S2(=O)=O` stands 14%; under `CO[C@H]1O[C@H](COc2ccccc2)[C@@H](O)[C@H](O)[C@H]1Oc1ccc(OC2CCCCC2)cc1`, -11%.
On to `CO[C@H]1O[C@H](COc2ccccc2)[C@@H](O)[C@H](O)[C@H]1Oc1ccc2c(c1)-c1ccccc1S2(=O)=O`, for which the inhibition at 20 µM is 2%.
Still for that read-out and setting: under `CO[C@H]1O[C@H](COc2ccc3c(c2)CCCC3)[C@@H](O)[C@H](O)[C@H]1Oc1ccc2c(c1)-c1ccccc1S2(=O)=O` stands 30%.
`CO[C@@H]1O[C@H](COc2ccccc2)[C@@H](O)[C@H](O)[C@H]1Oc1ccc(OC2CCCCC2)cc1`: the inhibition at 20 µM is -9%.
Turning to `CO[C@H]1O[C@H](COc2cccc3c2CCCC3)[C@@H](O)[C@H](O)[C@H]1Oc1ccc(OC2CCCCC2)cc1`, the inhibition at 20 µM is -8%.
Consider `CO[C@H]1O[C@H](COc2ccc3c(c2)CCCC3)[C@@H](O)[C@H](O)[C@H]1Oc1ccc(OC2CCCCC2)cc1`, for which the inhibition at 20 µM stood at 24%.
Consider `CO[C@H]1O[C@H](COc2ccc(-c3ccccc3)cc2)[C@@H](O)[C@H](O)[C@H]1Oc1ccc2c(c1)-c1ccccc1S2(=O)=O`, for which the inhibition at 20 µM worked out at 29%.
On to `CO[C@@H]1O[C@H](COc2ccc3c(c2)CCCC3)[C@@H](O)[C@H](O)[C@H]1Oc1ccc(OC2CCCCC2)cc1`, for which the inhibition at 20 µM turned out to be 0%.
Still for that read-out and setting: under `CO[C@@H]1O[C@H](COc2ccccc2)[C@@H](O)[C@H](O)[C@H]1Oc1ccc2c(c1)-c1ccccc1S2(=O)=O` stands -16%; under `CO[C@@H]1O[C@H](COc2ccc(-c3ccccc3)cc2)[C@@H](O)[C@H](O)[C@H]1Oc1ccc(OC2CCCCC2)cc1`, 64%.

The subject of another test is MDA-MB-435. Nature of the test: Cytotoxicity against human MDA-MB-435 cells at 20 uM after 48 hrs by MTT assay. The settings on record: MDA-MB-435, 48 h. The class given is functional.
With `CO[C@H]1O[C@H](COc2cccc3c2CCCC3)[C@@H](O)[C@H](O)[C@H]1Oc1ccc2c(c1)-c1ccccc1S2(=O)=O`, the inhibition at 20 µM is -5%.
Take `CO[C@@H]1O[C@H](COc2ccc3c(c2)CCCC3)[C@@H](O)[C@H](O)[C@H]1Oc1ccc2c(c1)-c1ccccc1S2(=O)=O`: the inhibition at 20 µM was -4%.
Still for that read-out and setting: under `CO[C@H]1O[C@H](COc2ccccc2)[C@@H](O)[C@H](O)[C@H]1Oc1ccc(OC2CCCCC2)cc1` stands -8%.
Still for that read-out and setting: in the case of `CO[C@H]1O[C@H](COc2ccccc2)[C@@H](O)[C@H](O)[C@H]1Oc1ccc2c(c1)-c1ccccc1S2(=O)=O` it was 4%; in that of `CO[C@H]1O[C@H](COc2ccc3c(c2)CCCC3)[C@@H](O)[C@H](O)[C@H]1Oc1ccc2c(c1)-c1ccccc1S2(=O)=O`, 17%; in that of `CO[C@@H]1O[C@H](COc2ccccc2)[C@@H](O)[C@H](O)[C@H]1Oc1ccc(OC2CCCCC2)cc1`, 14%.
On the same count and under the same terms, under `CO[C@H]1O[C@H](COc2cccc3c2CCCC3)[C@@H](O)[C@H](O)[C@H]1Oc1ccc(OC2CCCCC2)cc1` stands -1%; under `CO[C@H]1O[C@H](COc2ccc3c(c2)CCCC3)[C@@H](O)[C@H](O)[C@H]1Oc1ccc(OC2CCCCC2)cc1`, 16%.
In the case of `CO[C@H]1O[C@H](COc2ccc(-c3ccccc3)cc2)[C@@H](O)[C@H](O)[C@H]1Oc1ccc2c(c1)-c1ccccc1S2(=O)=O`, the inhibition at 20 µM was determined as 12%.
On the same count and under the same terms, under `CO[C@@H]1O[C@H](COc2ccc3c(c2)CCCC3)[C@@H](O)[C@H](O)[C@H]1Oc1ccc(OC2CCCCC2)cc1` stands 1%; under `CO[C@@H]1O[C@H](COc2ccccc2)[C@@H](O)[C@H](O)[C@H]1Oc1ccc2c(c1)-c1ccccc1S2(=O)=O`, 0%.
The same measure, in the same setting: in the case of `CO[C@@H]1O[C@H](COc2ccc(-c3ccccc3)cc2)[C@@H](O)[C@H](O)[C@H]1Oc1ccc(OC2CCCCC2)cc1` it was 30%.

The test system of another test is MCF7. Nature of the test: Cytotoxicity against human MCF7 cells at 20 uM after 48 hrs by MTT assay. Format: functional. The conditions noted are these: MCF7, 48 h.
For the compound `CO[C@H]1O[C@H](COc2cccc3c2CCCC3)[C@@H](O)[C@H](O)[C@H]1Oc1ccc2c(c1)-c1ccccc1S2(=O)=O`, the inhibition at 20 µM is 4%.
On the same count and under the same terms, in the case of `CO[C@@H]1O[C@H](COc2ccc3c(c2)CCCC3)[C@@H](O)[C@H](O)[C@H]1Oc1ccc2c(c1)-c1ccccc1S2(=O)=O` it was 7%; in that of `CO[C@H]1O[C@H](COc2ccccc2)[C@@H](O)[C@H](O)[C@H]1Oc1ccc(OC2CCCCC2)cc1`, -9%.
Still for that read-out and setting: in the case of `CO[C@H]1O[C@H](COc2ccccc2)[C@@H](O)[C@H](O)[C@H]1Oc1ccc2c(c1)-c1ccccc1S2(=O)=O` it was 7%.
Same read-out and setting: under `CO[C@H]1O[C@H](COc2ccc3c(c2)CCCC3)[C@@H](O)[C@H](O)[C@H]1Oc1ccc2c(c1)-c1ccccc1S2(=O)=O` stands 2%; under `CO[C@@H]1O[C@H](COc2ccccc2)[C@@H](O)[C@H](O)[C@H]1Oc1ccc(OC2CCCCC2)cc1`, -5%; under `CO[C@H]1O[C@H](COc2cccc3c2CCCC3)[C@@H](O)[C@H](O)[C@H]1Oc1ccc(OC2CCCCC2)cc1`, 3%.
With `CO[C@H]1O[C@H](COc2ccc3c(c2)CCCC3)[C@@H](O)[C@H](O)[C@H]1Oc1ccc(OC2CCCCC2)cc1`, the inhibition at 20 µM stood at 45%.
On the same count and under the same terms, under `CO[C@H]1O[C@H](COc2ccc(-c3ccccc3)cc2)[C@@H](O)[C@H](O)[C@H]1Oc1ccc2c(c1)-c1ccccc1S2(=O)=O` stands 15%; under `CO[C@@H]1O[C@H](COc2ccc3c(c2)CCCC3)[C@@H](O)[C@H](O)[C@H]1Oc1ccc(OC2CCCCC2)cc1`, 14%.
The same measure, in the same setting: under `CO[C@@H]1O[C@H](COc2ccccc2)[C@@H](O)[C@H](O)[C@H]1Oc1ccc2c(c1)-c1ccccc1S2(=O)=O` stands 7%; under `CO[C@@H]1O[C@H](COc2ccc(-c3ccccc3)cc2)[C@@H](O)[C@H](O)[C@H]1Oc1ccc(OC2CCCCC2)cc1`, 51%.

A further test has as its system MDA-MB-231. The test can be described thus: Cytotoxicity against human MDA-MB-231 cells after 48 hrs by MTT assay. Format: functional, cell-based. The settings on record: MDA-MB-231, 48 h.
Consider `CO[C@@H]1O[C@H](COc2ccc(OC3CCCCC3)cc2)[C@@H](O)[C@H](O)[C@H]1Oc1ccc(C(C)C)cc1`, for which the response was half-maximal at 35 µM (EC50).
Same read-out and setting: in the case of `CO[C@H]1O[C@H](COc2ccc(-c3ccccc3)cc2)[C@@H](O)[C@H](O)[C@H]1Oc1cccc(C(C)C)c1` it was 30 µM; in that of `CO[C@@H]1O[C@H](COc2ccccc2C(C)C)[C@@H](O)[C@H](O)[C@H]1Oc1ccc(OC2CCCCC2)cc1`, 44 µM; in that of `CO[C@H]1O[C@H](COc2ccccc2C(C)C)[C@@H](O)[C@H](O)[C@H]1Oc1ccc(OC2CCCCC2)cc1`, 36 µM.
`CO[C@@H]1O[C@H](COc2ccc(-c3ccccc3)cc2)[C@@H](O)[C@H](O)[C@H]1Oc1cccc(C(C)C)c1`: the EC50 amounted to 35 µM.
The same measure, in the same setting: under `CO[C@H]1O[C@H](COc2ccc(OC3CCCCC3)cc2)[C@@H](O)[C@H](O)[C@H]1Oc1ccc(C(C)C)cc1` stands 25 µM.
Same read-out and setting: under `CO[C@H]1O[C@H](COc2ccc3c(c2)CCCC3)[C@@H](O)[C@H](O)[C@H]1Oc1ccc(OC2CCCCC2)cc1` stands 20 µM; under `CO[C@@H]1O[C@H](COc2ccc(-c3ccccc3)cc2)[C@@H](O)[C@H](O)[C@H]1Oc1ccc(OC2CCCCC2)cc1`, 36 µM.

Another test concerns MDA-MB-435. The test can be described thus: Cytotoxicity against human MDA-MB-435 cells after 48 hrs by MTT assay. The class given is functional, cell-based. The settings on record: MDA-MB-435, 48 h.
On to `CO[C@H]1O[C@H](COc2ccc3c(c2)CCCC3)[C@@H](O)[C@H](O)[C@H]1Oc1ccc(OC2CCCCC2)cc1`, for which the EC50 came out at 26 µM.
Same read-out and setting: under `CO[C@@H]1O[C@H](COc2ccc(-c3ccccc3)cc2)[C@@H](O)[C@H](O)[C@H]1Oc1ccc(OC2CCCCC2)cc1` stands 26 µM.

The next test has as its system MCF7. Nature of the test: Cytotoxicity against human MCF7 cells after 48 hrs by MTT assay. The class given is functional, cell-based. The settings on record: MCF7, 48 h.
Compound `CO[C@H]1O[C@H](COc2ccc3c(c2)CCCC3)[C@@H](O)[C@H](O)[C@H]1Oc1ccc(OC2CCCCC2)cc1` displayed an EC50 of 17 µM.
`CO[C@@H]1O[C@H](COc2ccc(-c3ccccc3)cc2)[C@@H](O)[C@H](O)[C@H]1Oc1ccc(OC2CCCCC2)cc1` returned an EC50 of 18 µM.

In the next test the test system is A549. Nature of the test: Cytotoxicity against human A549 cells after 48 hrs by MTT assay. Format: functional, cell-based. The conditions noted are these: A549, 48 h.
`CO[C@@H]1O[C@H](COc2ccc(OC3CCCCC3)cc2)[C@@H](O)[C@H](O)[C@H]1Oc1ccc(C(C)C)cc1` gave an EC50 of 32 µM. That is a double-digit micromolar value.
The same measure, in the same setting: under `CO[C@H]1O[C@H](COc2ccc(-c3ccccc3)cc2)[C@@H](O)[C@H](O)[C@H]1Oc1cccc(C(C)C)c1` stands 32 µM; under `CO[C@@H]1O[C@H](COc2ccccc2C(C)C)[C@@H](O)[C@H](O)[C@H]1Oc1ccc(OC2CCCCC2)cc1`, 41 µM; under `CO[C@H]1O[C@H](COc2ccccc2C(C)C)[C@@H](O)[C@H](O)[C@H]1Oc1ccc(OC2CCCCC2)cc1`, 33 µM.
On the same count and under the same terms, in the case of `CO[C@@H]1O[C@H](COc2ccc(-c3ccccc3)cc2)[C@@H](O)[C@H](O)[C@H]1Oc1cccc(C(C)C)c1` it was 35 µM; in that of `CO[C@H]1O[C@H](COc2ccc(OC3CCCCC3)cc2)[C@@H](O)[C@H](O)[C@H]1Oc1ccc(C(C)C)cc1`, 27 µM.

The test system of another test is HeLa. The test can be described thus: Cytotoxicity against human HeLa cells after 48 hrs by MTT assay.
Settings: not given
The class given is functional, cell-based.
For `CO[C@@H]1O[C@H](COc2ccc(OC3CCCCC3)cc2)[C@@H](O)[C@H](O)[C@H]1Oc1ccc(C(C)C)cc1`, it took 26 µM to reach a half-maximal effect (EC50). That is a double-digit micromolar value.
Same read-out and setting: in the case of `CO[C@H]1O[C@H](COc2ccc(-c3ccccc3)cc2)[C@@H](O)[C@H](O)[C@H]1Oc1cccc(C(C)C)c1` it was 35 µM; in that of `CO[C@@H]1O[C@H](COc2ccccc2C(C)C)[C@@H](O)[C@H](O)[C@H]1Oc1ccc(OC2CCCCC2)cc1`, 42 µM.
`CO[C@H]1O[C@H](COc2ccccc2C(C)C)[C@@H](O)[C@H](O)[C@H]1Oc1ccc(OC2CCCCC2)cc1` came in with a concentration giving a half-maximal response (EC50) of 47 µM.
In turn, `CO[C@@H]1O[C@H](COc2ccc(-c3ccccc3)cc2)[C@@H](O)[C@H](O)[C@H]1Oc1cccc(C(C)C)c1` registered an EC50 of 32 µM.
Same read-out and setting: in the case of `CO[C@H]1O[C@H](COc2ccc(OC3CCCCC3)cc2)[C@@H](O)[C@H](O)[C@H]1Oc1ccc(C(C)C)cc1` it was 18 µM.
